Assay results from patent publication US12570536B2, “Ammonia synthesis methods and systems” (President and Fellows of Harvard College, priority 2016, dated 2026).

What was measured:
X. autotrophicus = test: Extracellular NH3 production by the CoPi|Co-P|X. autotrophicus hybrid device after addition of a GS inhibitor; format: cell-based, Xanthobacter autotrophicus
Description: A reactor used in the experiments included a biocompatible water splitting catalyst system including a cobalt-phosphorous (Co—P) alloy cathode for the hydrogen evolution reaction (HER) and a cobalt phosphate (CoPi) anode for the oxygen evolution reaction (OER). This system enabled the use of a low driving voltage (Eappl) while producing the desired hydrogen for use in producing ammonia. Specifically, NH3 synthesis from N2 and H2O was accomplished using the water splitting system and driving the N2 reduction reaction within H2-oxidizing, autotrophic microorganisms. In this case, Xanthobacter autotrophicus (X. autotrophicus) was used. X. autotrophicus is a gram-negative bacterium that belongs to a small group of diazotrophs, which at micro-aerobic condition (less than about 5% O2) can use H2 as their sole energy source to fix CO2 and N2 into biomass. Therefore, in this experimental setup, electrochemical water splitting generated H2 as the biological energy source and in the same reactor X. autotrophicus acted as the room-temperature N2 reduction reaction catalyst to convert H2 and N2 into NH3.
The electrodes included a Co—P cathode for the hydrogen evolution reaction and a CoPi anode for the oxygen evolution reaction. A gas mixture including 2% O2, 20% CO2, and 78% N2 was bubbled through the solution at a flow rate of greater than or equal to 5 mL/min to maintain a micro-aerobic environment.
At the beginning of each experiment, X. autotrophicus was inoculated into the organic-free minimal medium without any nitrogen supplement. A constant driving voltage (Eappl=3.0 V) was applied to the CoPi|Co—P catalyst system, and aliquots were periodically sampled for the quantification of biomass (optical density at 600 nm, OD600) as well as fixed nitrogen (colorimetric assay).
The hybrid device is capable of excreting synthesized NH3 into an extracellular medium. Previous biochemical assays and genome sequencing on this strain indicate that the NH3 generated from nitrogenase is incorporated into biomass via a two-step process mediated by glutamine synthetase (GS) and glutamate synthase (GOGAT) (FIGS. 1 and 5). If the functionality of this NH3 assimilation pathway is disrupted, direct production of an extracellular NH3 fertilizer solution is realized. It has been reported that GS inhibitors can be used for NH3 secretion in sugar-fementating diazotrophs. As a proof of principle, glufosinate (PPT), a specific GS inhibitor commercially used as herbicide, was used to block the NH3 assimilation pathway and allow the synthesized NH3 to passively diffuse out into the extracellular medium (pathway 2 in FIG. 1, and FIG. 5). After the addition of PPT, the biomass of X. autotrophicus stagnated, while Ntotal and the concentration of free NH3 in the solution (NNH3) increased (FIG. 6). […]

nitrogenase = details: competitive inhibition of nitrogenase; cited from earlier work
[1] = end of experiments, after PPT addition, n=3

| Structure (SMILES) | biomass of X. autotrophicus after addition (X. autotrophicus; after the addition of PPT, FIG. 6) | concentration of free NH3 in the solution (NNH3) (X. autotrophicus; end of experiments, after PPT addition) | accumulated Ntotal (X. autotrophicus; [1]) | concentration of free NH3 in the solution (NNH3) (X. autotrophicus; [1]) | inhibition constant Kis(D2) (nitrogenase) |
| --- | --- | --- | --- | --- | --- |
| CP(=O)(O)CCC(N)C(=O)O (centres unmarked) [PPT, glufosinate] | stagnated | ~0.8 mM | 47 ± 3 mg/L | 11 ± 2 mg/L |  |
| [HH] [H2] |  |  |  |  | ~11 kPa |
